Reference: PubChem BioAssay (NCI)
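GI50: concentration for 50% inhibition of growth. The concentration for full growth arrest is given as TGI.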

Key:
Test in all cases: growth of human tumour cells (NCI), 384-well format
[1] = system: NCI-H460 NSCLC
[2] = system: RXF 393 renal
[3] = system: NCI-H522 lung
[4] = system: KM12 colon
[5] = system: A498 renal
[6] = system: DU-145 prostate
[7] = system: UO-31 renal
[8] = system: MDA-MB-468 breast
[9] = system: MDA-MB-231 breast
[10] = system: K-562 leukemia
[11] = system: HCT-15 colon
[12] = system: EKVX NSCLC
[13] = system: CAKI-1 renal
[14] = system: SW-620 colon
[15] = system: HS 578T breast
[16] = system: OVCAR-3 ovarian
[17] = system: A549 NSCLC
[18] = system: HOP-62 NSCLC
[19] = system: SF-268 CNS
[20] = system: UACC-62 melanoma
[21] = system: SNB-75 CNS
[22] = system: ACHN renal
[23] = system: M14 melanoma
[24] = system: SK-MEL-28 melanoma
[25] = system: MCF7 breast
[26] = system: TK-10 renal
[27] = system: T-47D breast
[28] = system: NCI-H23 lung
[29] = system: HL-60(TB) leukemia
[30] = system: MOLT-4 leukemia
[31] = system: HCC-2998 colon
[32] = system: SK-MEL-5 melanoma
[33] = system: BT-549 breast
[34] = system: SF-539 CNS
[35] = system: OVCAR-4 ovarian
[36] = system: HCT-116 colon
[37] = system: LOX IMVI melanoma
[38] = system: HOP-92 NSCLC
[39] = system: HT29 colon
[40] = system: SF-295 CNS
[41] = system: UACC-257 melanoma
[42] = system: SR leukemia
[43] = system: PC-3 prostate
[44] = system: MDA-MB-435 melanoma
[45] = system: NCI-H322M lung
[46] = system: COLO 205 colon
[47] = system: MALME-3M melanoma
[48] = system: SN12C renal
[49] = system: IGROV1 ovarian
[50] = system: 786-0 renal
[51] = system: SK-OV-3 ovarian
[52] = system: RPMI-8226 leukemia
[53] = system: CCRF-CEM leukemia
[54] = system: NCI/ADR-RES ovarian
[55] = system: OVCAR-8 ovarian
[56] = system: U251 glioblastoma
[57] = system: NCI-H226 lung
[58] = system: SNB-19 CNS

## Nc1ncccc1-c1nc2ccc(-c3ccccc3)nc2n1-c1ccc(C2(N)CCC2)cc1
[1]
  GI50: 359 nM
  TGI: 1820 nM
[2]
  GI50: 582 nM
  TGI: 1910 nM
[3]
  GI50: 1560 nM
  TGI: 2900 nM
[4]
  GI50: 1540 nM
  TGI: 3270 nM
[5]
  GI50: 234 nM
  TGI: 1310 nM
[6]
  GI50: 2420 nM
  TGI: 8300 nM
[7]
  GI50: 1320 nM
  TGI: 2600 nM
[8]
  GI50: 226 nM
  TGI: 1420 nM
[9]
  GI50: 1430 nM
  TGI: 2790 nM
[10]
  GI50: 1600 nM
  TGI: 2950 nM
[11]
  GI50: 1240 nM
  TGI: 2490 nM
[12]
  GI50: 1640 nM
  TGI: 5080 nM
[13]
  GI50: 1050 nM
  TGI: 2270 nM
[14]
  GI50: 1790 nM
  TGI: 3180 nM
[15]
  GI50: 1030 nM
  TGI: 2200 nM
[16]
  GI50: 476 nM
  TGI: 2050 nM
[17]
  GI50: 1760 nM
  TGI: 4170 nM
[18]
  GI50: 1610 nM
  TGI: 3020 nM
[19]
  GI50: 1590 nM
  TGI: 2960 nM
[20]
  GI50: 1160 nM
  TGI: 2390 nM
[21]
  GI50: 597 nM
  TGI: 2020 nM
[22]
  GI50: 1720 nM
  TGI: 4040 nM
[23]
  GI50: 1370 nM
  TGI: 2660 nM
[24]
  GI50: 1220 nM
  TGI: 2460 nM
[25]
  GI50: 96.3 nM
  TGI: 1540 nM
[26]
  GI50: 1240 nM
  TGI: 2600 nM
[27]
  GI50: 35.5 nM
  TGI: 1040 nM
[28]
  GI50: 2400 nM
  TGI: 8070 nM
[29]
  GI50: 1820 nM
  TGI: 3210 nM
[30]
  GI50: 154 nM
  TGI: 1210 nM
[31]
  GI50: 1350 nM
  TGI: 2640 nM
[32]
  GI50: 1450 nM
  TGI: 2770 nM
[33]
  GI50: 1050 nM
  TGI: 2250 nM
[34]
  GI50: 1160 nM
  TGI: 2380 nM
[35]
  GI50: 3620 nM
  TGI: 12100 nM
[36]
  GI50: 1500 nM
  TGI: 2830 nM
[37]
  GI50: 1740 nM
  TGI: 3110 nM
[38]
  GI50: 1400 nM
  TGI: 3120 nM
[39]
  GI50: 1100 nM
  TGI: 2340 nM
[40]
  GI50: 1050 nM
  TGI: 2230 nM
[41]
  GI50: 1460 nM
  TGI: 2770 nM
[42]
  GI50: 96.6 nM
  TGI: 1260 nM
[43]
  GI50: 139 nM
  TGI: 1630 nM
[44]
  GI50: 1750 nM
  TGI: 3130 nM
[45]
  GI50: 1380 nM
  TGI: 2960 nM
[46]
  GI50: 1030 nM
  TGI: 2210 nM
[47]
  GI50: 464 nM
  TGI: 1910 nM
[48]
  GI50: 2390 nM
  TGI: 14400 nM
[49]
  GI50: 187 nM
  TGI: 1810 nM
[50]
  GI50: 1040 nM
  TGI: 2220 nM
[51]
  GI50: 547 nM
  TGI: 2190 nM
[52]
  GI50: 1420 nM
  TGI: 2720 nM
[53]
  GI50: 285 nM
  TGI: 1760 nM
[54]
  GI50: 1950 nM
  TGI: 4120 nM
[55]
  GI50: 1430 nM
  TGI: 2750 nM
[56]
  GI50: 1460 nM
  TGI: 2770 nM
[57]
  GI50: 1420 nM
  TGI: 3340 nM
[58]
  GI50: 1760 nM
  TGI: 3170 nM
